Experimental data reported in the supplement of paper PMC8671470.

What was measured:
Conditions in all cases: 72 h
KU-812 [1] = experiment: cell viability (% survival relative to DMSO control, bortezomib = 0%); higher = less cytotoxic
In short: (§1)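 Fifteen myeloid leukaemia cell lines were exposed to compounds at 1, 10, 100, 1000 or 10000 nM in 384-well plates for 72 h at 37 °C and 5% CO2. Viability was read by CellTiter-Glo luminescence and normalised, with vehicle as 100% and a 10 µM positive control as 0%. Values are percent survival averaged over duplicates.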

KG-1 [2] = experiment: as above
In short: as §1

NOMO-1 [3] = experiment: as above
In short: as §1

MOLM-13 [4] = experiment: as above
In short: as §1

Mono-Mac-6 [5] = experiment: as above
In short: as §1

HL-60 [6] = experiment: as above
In short: as §1

HEL [7] = experiment: as above
In short: as §1

THP-1 [8] = experiment: as above
In short: as §1

MV4-11 [9] = experiment: as above
In short: as §1

LAMA-84 [10] = experiment: as above
In short: as §1

SHI-1 [11] = experiment: as above
In short: as §1

ML-2 [12] = experiment: as above
In short: as §1

K-562 [13] = experiment: as above
In short: as §1

KCL-22 [14] = experiment: as above
In short: as §1

BV-173 [15] = experiment: as above
In short: as §1

KU-812 [16] = system: KU-812
In short: (§2)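 Fifteen myeloid leukaemia lines were incubated for 72 h at 37 °C with 5% CO2 across five tenfold doses from 1 to 10,000 nM, in duplicate. ATP luminescence was normalised to vehicle and to a positive control at 10 µM and fitted with a four-parameter log-logistic model. The IC50 came from these dose–response fits.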

KG-1 [17] = system: KG-1
In short: as §2

NOMO-1 [18] = system: NOMO-1
In short: as §2

MOLM-13 [19] = system: MOLM-13
In short: as §2

Mono-Mac-6 [20] = system: Mono-Mac-6
In short: as §2

HL-60 [21] = system: HL-60
In short: as §2

HEL [22] = system: HEL
In short: as §2

THP-1 [23] = system: THP-1
In short: as §2

MV4-11 [24] = system: MV4-11
In short: as §2

LAMA-84 [25] = system: LAMA-84
In short: as §2

SHI-1 [26] = system: SHI-1
In short: as §2

ML-2 [27] = system: ML-2
In short: as §2

K-562 [28] = system: K-562
In short: as §2

KCL-22 [29] = system: KCL-22
In short: as §2

BV-173 [30] = system: BV-173
In short: as §2

N[C@@H](CC(=O)N1CCn2c(nnc2C(F)(F)F)C1)Cc1cc(F)c(F)cc1F [Sitagliptin]
cell viability [%]
Conditions	1 nM	10 nM	100 nM	1000 nM	10000 nM
BV-173 [15]	89.5	103	99.9	93.4	102
HEL [7]	90.7	95.3	111	95.4	103
HL-60 [6]	101	95.5	97.1	91.3	95.2
K-562 [13]	93.8	96.9	103	99.7	113
KCL-22 [14]	94	114	106	94.4	92.8
KG-1 [2]	90.9	104	108	95.2	103
KU-812 [1]	94.6	98.9	91.9	95.5	102
LAMA-84 [10]	93.1	99.2	94	102	93.8
ML-2 [12]	90	102	99.3	97.4	97.9
MOLM-13 [4]	95.5	110	92.5	84.3	95.4
MV4-11 [9]	89.2	102	99.3	92.2	101
Mono-Mac-6 [5]	92.5	83.8	96.1	85.6	100
NOMO-1 [3]	99.8	96.9	91.3	101	100
SHI-1 [11]	95.2	104	105	96.8	97.4
THP-1 [8]	97.8	99.7	106	99	97.6

Conditions	IC50 (cell viability) [µM]
BV-173 [30]	> 10
HEL [22]	> 10
HL-60 [21]	> 10
K-562 [28]	> 10
KCL-22 [29]	> 10
KG-1 [17]	> 10
KU-812 [16]	> 10
LAMA-84 [25]	> 10
ML-2 [27]	> 10
MOLM-13 [19]	> 10
MV4-11 [24]	> 10
Mono-Mac-6 [20]	> 10
NOMO-1 [18]	> 10
SHI-1 [26]	> 10
THP-1 [23]	> 10

CO[C@H]1C[C@@H]2CC[C@@H](C)[C@@](O)(O2)C(=O)C(=O)N2CCCC[C@H]2C(=O)O[C@H]([C@H](C)C[C@@H]2CC[C@@H](OC(=O)C(C)(CO)CO)[C@H](OC)C2)CC(=O)[C@H](C)/C=C(\C)[C@@H](O)[C@@H](OC)C(=O)[C@H](C)C[C@H](C)/C=C/C=C/C=C/1C [Temsirolimus]
cell viability [%]
Conditions	1 nM	10 nM	100 nM	1000 nM	10000 nM
BV-173 [15]	96.5	54.8	57.6	45.7	39.5
HEL [7]	101	85.3	77.3	65.2	46.3
HL-60 [6]	101	96.8	90	73.4	73
K-562 [13]	94.8	58.4	47.2	44.7	33.5
KCL-22 [14]	95.8	58.5	47.8	32.5	23.6
KG-1 [2]	80.8	47.2	46.5	39.2	33.6
KU-812 [1]	71.8	42.9	44.7	38.8	36.1
LAMA-84 [10]	90.6	63.2	65	49.2	40.9
ML-2 [12]	84.3	71.5	70.4	60.3	38.2
MOLM-13 [4]	78.5	41.6	40.9	29.8	30.6
MV4-11 [9]	89.6	63.6	62.3	53.2	37.3
Mono-Mac-6 [5]	99.2	49.4	48	35.1	38
NOMO-1 [3]	79.9	67.5	76.8	60.9	52.9
SHI-1 [11]	93.3	71.2	80.4	58.8	59.3
THP-1 [8]	91.6	75	76.8	57.3	55.6

Conditions	IC50 (cell viability) [µM]
BV-173 [30]	0.0039
HEL [22]	1.15
HL-60 [21]	0.148
K-562 [28]	0.00535
KCL-22 [29]	0.0133
KG-1 [17]	0.00205
KU-812 [16]	0.00111
LAMA-84 [25]	0.0208
ML-2 [27]	2.59
MOLM-13 [19]	0.00198
MV4-11 [24]	0.0611
Mono-Mac-6 [20]	0.00487
NOMO-1 [18]	4.42
SHI-1 [26]	0.0283
THP-1 [23]	0.0539

CN1CCN(CCCN2c3ccccc3Sc3ccc(C(F)(F)F)cc32)CC1 [Trifluoperazine]
cell viability [%]
Conditions	1 nM	10 nM	100 nM	1000 nM	10000 nM
BV-173 [15]	97.3	94.8	103	97.6	55.3
HEL [7]	110	82.7	99.9	86.5	65.1
HL-60 [6]	100	101	88.6	95.3	20.2
K-562 [13]	113	89.5	85.1	92	0.986
KCL-22 [14]	108	109	115	78.1	42.1
KG-1 [2]	106	103	100	79.8	42.8
KU-812 [1]	101	94	97.8	86.3	65.6
LAMA-84 [10]	101	100	98.8	83	76.5
ML-2 [12]	102	102	103	95.9	48.4
MOLM-13 [4]	105	85.4	101	93.2	57.7
MV4-11 [9]	99.5	79.6	93.8	89.9	50.3
Mono-Mac-6 [5]	108	112	90.4	83.2	66.6
NOMO-1 [3]	104	108	101	88.3	81
SHI-1 [11]	113	96.2	103	92.1	64.4
THP-1 [8]	97.9	102	100	87.6	72.4

Conditions	IC50 (cell viability) [µM]
BV-173 [30]	> 10
HEL [22]	> 10
HL-60 [21]	5.18
K-562 [28]	2.91
KCL-22 [29]	3.49
KG-1 [17]	3.54
KU-812 [16]	> 10
LAMA-84 [25]	> 10
ML-2 [27]	9.55
MOLM-13 [19]	> 10
MV4-11 [24]	9.52
Mono-Mac-6 [20]	> 10
NOMO-1 [18]	> 10
SHI-1 [26]	> 10
THP-1 [23]	> 10
